Test results from patent US12594267B2, “Capsid inhibitors for the treatment of HIV” (Gilead Sciences, Inc., priority 2018, dated 2026).

Assays:
INSTI-resistant viruses = test: Cytopathic antiviral assay in MT-2 cells, INSTI-resistant viruses; format: cell-based, HIV-1; conditions: for EC50 Fold-Change: Mutant/WT (HXB2D) EC50 ratio, mean ± s.d. of three experiments
Procedure: The antiviral activity of the compound of Formula (a) was tested against a panel of known HIV-1 mutants resistant to HIV PIs (ATV and DRV), NRTIs (TFV and FTC), NNRTIs (RPV and EFV) or INSTIs (RAL, EVG and DTG) using a cytopathic antiviral assay in MT-2 cells. The compound of Formula (Ia) was fully active against all tested mutants resistant to PIs (Table 11), NRTIs (Table 12), NNRTIs (Table 13) or INSTIs (Table 14).

HIV-2 isolates = test: Antiviral activity against HIV-2 isolates in PHA-stimulated human PBMCs; format: cell-based; conditions: Human immunodeficiency virus 2, PBMC, 168 h, 7-day infection, RT activity readout, mean of triplicate
Procedure: The antiretroviral activity of the compound of Formula (Ia) was tested against a panel of 22 HIV-1 clinical isolates of HIV-1 and two HIV-2 isolates in freshly isolated, PHA-stimulated human peripheral blood mononuclear cells (PBMCs). The HIV-1 isolates included representative strains from subtypes A, B, C, D, E, F, G, N, O, AE, and AG. Following a 7-day infection, virus production was determined by measuring reverse transcriptase activity in cell-free culture supernatants.

Structure (SMILES): CC(C)(C#Cc1ccc(-c2ccc(Cl)c3c(NS(C)(=O)=O)nn(CC(F)(F)F)c23)c([C@H](Cc2cc(F)cc(F)c2)NC(=O)Cn2nc(C(F)(F)F)c3c2C(F)(F)[C@@H]2C[C@H]32)n1)S(C)(=O)=O [Formula (Ia), N—((S)-1-(3-(4-chloro-3-(methylsulfonamido)-1-(2,2,2-trifluoroethyl)-1H-indazol-7-yl)-6-(3-methyl-3-(methylsulfonyl)but-1-yn-1-yl)pyridin-2-yl)-2-(3,5-difluorophenyl)ethyl)-2-((3bS,4aR)-5,5-difluoro-3-(trifluoromethyl)-3b,4,4a,5-tetrahydro-1H-cyclopropa[3,4]cyclopenta[1,2-c]pyrazol-1-yl)acetamide]
- EC50 Fold-Change (INSTI-resistant viruses; E92Q/N155H): 0.9 ± 0.4
- EC50 Fold-Change (INSTI-resistant viruses; E138K/Q148K): 0.7 ± 0.3
- EC50 Fold-Change (INSTI-resistant viruses; G140S/Q148R): 0.8 ± 0.3
- EC50 Fold-Change (INSTI-resistant viruses; N155H/Q148R): 1.3 ± 0.7
- EC50 Fold-Change (INSTI-resistant viruses; R263K/M50I): 0.9 ± 0.5
- EC50 Fold-Change (INSTI-resistant viruses; Y143R): 0.5 ± 0.1
- activity against all tested mutants, in words (INSTI-resistant viruses; mutants resistant to INSTIs): fully active
- EC50 (HIV-2 isolates; HIV-2 isolate CBL-20): 0.57 nM
- EC50 (HIV-2 isolates; HIV-2 isolate CDC310319): 1.02 nM
